Where two headings read alike, the source gives them in different places.
What was measured:
[1] = Treatment of sulfides in municipal wastewater using ferric chelants and ozone; conditions: ozone ~13.4 ppm, 4 ppm ferric chelant where used; for sulfide remaining: start 13.70
Excerpt: The raw wastewater received a dose of 4 ppm of each of the four ferric chelants (mass calculated as chelant) just prior to addition of ozone.
Ozone addition was accomplished using an ozone generator from Ozone Solutions, Sioux Center, Iowa. The generator was capable of generating up to 2 grams per hour of ozone. Injection of ozone into the wastewater was accomplished using an injection system from Ozone Solutions called the H2O-Mini. The unit is designed to treat from 1.5 to 5.7 liters per minute of wastewater. The unit was set up to deliver 6.7 mg/minute of dissolved ozone (assumed the 80% efficiency of dissolution noted by the manufacturer) to wastewater passing the injection nozzle within the H2O-mini. Each test was designed for maximum wastewater flow through the H2O-mini (5.7 liters/min).
An objective of the study will be to treat most, but not all, of the sulfide present within the individual test samples in order to determine which treatment was more efficient than the others.
Samples were taken over twenty minutes of contact time from the recirculation vessel after ozonation. For each of the four ferric chelant studies, chelants were added to the wastewater recirculation vessels just prior to starting the injection of ozone and recirculation of the liquids. The injection of ozone was applied over the prescribed period and sampled as before in the ozone only experiment.

[2] = Treatment of sulfides in municipal wastewater using ferric chelants and hydrogen peroxide; conditions: 20 ppm chelant and 105.8 ppm hydrogen peroxide
[3] = test system: total heterotrophic bacteria; assay: Disinfection of wastewater using chelated iron compounds; format: cell-based; conditions: 30 min, raw average 18,188 CFUs; for Test 3 CFUs/ml 12 ppm Fe-Chelant: chelant alone, no H2O2
Experimental: The clarified supernatant was then pored off of the top of the settled solids within the sample. The supernatant was then mixed and four samples were collected to determine untreated heterotrophic bacteria counts. […] were dissolved in distilled water at 0.4334M. Ferric chloride was added in amounts to achieve saturation of chelant sites on the respective chelants. […] Twenty individual liter samples of supernatant were then decanted from the well-mixed wastewater sample for testing. Four chelated iron products with peroxide were tested at two test concentrations and compared to samples receiving peroxide only and iron chelate only. […] Samples were then decanted to sterile sample containers containing sodium thiosulfate to stop the oxidation process and preserve the sample. Samples were then placed in a refrigerator until all samples were finished. Samples were packaged in a standard cooler with ice packs and sent via overnite delivery to ProChem Labs in Lynchburg, Va. for analysis for total heterotrophic bacteria counts.

[4] = Anaerobic sulfide treatment: pure oxygen versus pure oxygen + ferric MGDA and nitrate; conditions: for Sulfide: control 33, 10 cc pure oxygen, ~0.1 ml ~0.03 M Fe MGDA with ~8.75 mg nitrate where used
Excerpt: Three 300 milliliter Supelco test flasks were utilized for conducting the testing. Each flask had two valves and a single port for a septum to inject chemistry into the vessel. Each test flask was completely filled to zero headspace with wastewater from a municipal wastewater treatment facility that had been spiked with sodium sulfide. […] Test flasks were left at room temperature for two hours to assure that any oxygen within the wastewater in the test flasks was consumed prior to the study so as to mimic anaerobic wastewater conditions to initiate the study. […] Oxygen was injected simultaneously with a slight opening of a valve on the cylinder so that wastewater could could be displaced by the incoming volume of oxygen. […] The control sample flask received no injection of any ingredients. After injection of ingredients into each test flask, the flasks were placed on a New Brunswick Shaker Table and shaken for variable periods of time at ˜200 rpm's. After each test period flasks were removed and a sample extracted for sulfide testing using a La Motte Sulfide Color Comparison Test Kit. Sample for the control was taken at time zero for each study.

[5] = Anaerobic sulfide treatment: pure oxygen versus pure oxygen + ferric MGDA; conditions: 10 cc pure oxygen, ~0.1 ml ~0.03 M Fe MGDA where used
[6] = Nitrate addition to sewage, lab jar tests and sewage collection system test
[7] = cited from earlier work

For O=C([O-])CN(CCN(CC(=O)[O-])CC(=O)[O-])CC(=O)[O-].[Fe+3] [Fe-EDTA], the “Overall total percentage of sulfide reduction” value [1] was 64%, the “Overall total percentage of sulfide reduction” value ([1]; listed as ferric EDTA) was 64% and the sulfide remaining ([1]; 5 min contact) was 6.20 ppm. The sulfide remaining ([1]; 10 min contact) was 5.10 ppm, the sulfide remaining ([1]; 20 min contact) was 4.90 ppm and the “sulfide reduction after 15 minutes” value [2] was 60%. For the same molecule, the “Test 1 CFUs/ml 19.8 ppm H2O2 6 ppm Fe-Chelant” value [3] was 360 CFUs/ml, the “Test 2 CFUs/ml 39.6 ppm H2O2 12 ppm Fe-Chelant” value [3] was 59 CFUs/ml and the “Test 3 CFUs/ml 12 ppm Fe-Chelant” value [3] was 18,200 CFUs/ml.

For O=O [Oxygen, oxygen], the Sulfide ([4]; 5 min) was 30, the Sulfide ([4]; 10 min) was 16 and the sulfide reduced ([4]; after 10 minutes of contact) was “approximately 50%”. The Sulfide ([5]; Trial 1, 5 min, control 33, 300 ml flask) was 25 mg/L, the Sulfide ([5]; Trial 2, 5 min, control 31) was 25 mg/L and the Sulfide ([5]; Trial 2, 22 min, control 31) was 1.5 mg/L.

With O=[N+]([O-])[O-].[Na+] [sodium nitrate] the “reduction in sewage biological oxygen demand, BOD” value [6] was no more than 70% and the “dissolved hydrogen sulfide after dosing” value ([6]; sewage containing over approximately 50 mg/L dissolved hydrogen sulfide) was less than 0.1 mg/L.

In the case of S [HS^−], the “Proportion in dissolved sulfide” value ([7]; pH 5.0) is given as roughly 0.01, the “Proportion in dissolved sulfide” value ([7]; pH 6.0) is given as roughly 0.09 and the “Proportion in dissolved sulfide” value ([7]; pH 6.2) is given as roughly 0.14. For the same molecule, the “Proportion in dissolved sulfide” value ([7]; pH 6.4) was roughly 0.20, the “Proportion in dissolved sulfide” value ([7]; pH 6.6) was roughly 0.28 and the “Proportion in dissolved sulfide” value ([7]; pH 6.8) was roughly 0.39. For the same molecule, the “Proportion in dissolved sulfide” value ([7]; pH 7.0) was roughly 0.50, the “Proportion in dissolved sulfide” value ([7]; pH 7.2) was roughly 0.61 and the “Proportion in dissolved sulfide” value ([7]; pH 7.4) was roughly 0.72. For the same molecule, the “Proportion in dissolved sulfide” value ([7]; pH 7.6) was roughly 0.80, the “Proportion in dissolved sulfide” value ([7]; pH 7.8) was roughly 0.86 and the “Proportion in dissolved sulfide” value ([7]; pH 8.0) was roughly 0.91. The “Proportion in dissolved sulfide” value ([7]; pH 8.2) was roughly 0.941, the “Proportion in dissolved sulfide” value ([7]; pH 8.4) was roughly 0.961 and the “Proportion in dissolved sulfide” value ([7]; pH 8.6) was roughly 0.975. The “Proportion in dissolved sulfide” value ([7]; pH 8.8) was roughly 0.986 and the “Proportion in dissolved sulfide” value ([7]; pH 9.0) was roughly 0.99.

With O=[O+][O-] [Ozone, ozone, reference compound] the “Overall total percentage of sulfide reduction” value [1] was 46%, the sulfide remaining ([1]; 5 min contact) was 8.05 ppm and the sulfide remaining ([1]; 10 min contact) was 7.50 ppm. For the same molecule, the sulfide remaining ([1]; 20 min contact) was 7.40 ppm.

With O=C([O-])CN(CC(=O)[O-])CC(=O)[O-].[Fe+3] [Fe-NTA] the “Overall total percentage of sulfide reduction” value [1] was 91%, the “Overall total percentage of sulfide reduction” value ([1]; listed as ferric NTA) was 91% and the sulfide remaining ([1]; 5 min contact) was 3.40 ppm. The sulfide remaining ([1]; 10 min contact) was 1.90 ppm, the sulfide remaining ([1]; 20 min contact) was 1.30 ppm and the “sulfide reduction after 15 minutes” value [2] was 70.2%. The “Test 1 CFUs/ml 19.8 ppm H2O2 6 ppm Fe-Chelant” value [3] was 370 CFUs/ml, the “Test 2 CFUs/ml 39.6 ppm H2O2 12 ppm Fe-Chelant” value [3] was 75 CFUs/ml and the “Test 3 CFUs/ml 12 ppm Fe-Chelant” value [3] was 18,300 CFUs/ml.

For O=C([O-])CN(CCO)CC(=O)[O-].[Fe+3] [Fe-HEIDA], the “Overall total percentage of sulfide reduction” value [1] was 60%, the “Overall total percentage of sulfide reduction” value ([1]; listed as ferric HEIDA) was 60% and the sulfide remaining ([1]; 5 min contact) was 6.80 ppm. The sulfide remaining ([1]; 10 min contact) was 6.00 ppm, the sulfide remaining ([1]; 20 min contact) was 5.40 ppm and the “Test 1 CFUs/ml 19.8 ppm H2O2 6 ppm Fe-Chelant” value [3] was 1350 CFUs/ml. The “Test 2 CFUs/ml 39.6 ppm H2O2 12 ppm Fe-Chelant” value [3] was 84 CFUs/ml and the “Test 3 CFUs/ml 12 ppm Fe-Chelant” value [3] was 16,700 CFUs/ml.

Reference: patent US10131558B1, “Compositions, methods, and/or systems for managing sulfide” (priority 2016, dated 2018)
